{
  "source": "patent US20090131431A1",
  "about": "“Pyrazolo[3,4-b]pyridine compounds, and their use as a PDE4 inhibitors” (priority 2005, published 2009)",
  "data": [
    {"target": "T1, PDE4B (human recombinant) (Homo sapiens, UniProt Q07343)", "T1 construct": "made in house", "T1 sequence (Q07343 1-564 isoform Q07343-2)": "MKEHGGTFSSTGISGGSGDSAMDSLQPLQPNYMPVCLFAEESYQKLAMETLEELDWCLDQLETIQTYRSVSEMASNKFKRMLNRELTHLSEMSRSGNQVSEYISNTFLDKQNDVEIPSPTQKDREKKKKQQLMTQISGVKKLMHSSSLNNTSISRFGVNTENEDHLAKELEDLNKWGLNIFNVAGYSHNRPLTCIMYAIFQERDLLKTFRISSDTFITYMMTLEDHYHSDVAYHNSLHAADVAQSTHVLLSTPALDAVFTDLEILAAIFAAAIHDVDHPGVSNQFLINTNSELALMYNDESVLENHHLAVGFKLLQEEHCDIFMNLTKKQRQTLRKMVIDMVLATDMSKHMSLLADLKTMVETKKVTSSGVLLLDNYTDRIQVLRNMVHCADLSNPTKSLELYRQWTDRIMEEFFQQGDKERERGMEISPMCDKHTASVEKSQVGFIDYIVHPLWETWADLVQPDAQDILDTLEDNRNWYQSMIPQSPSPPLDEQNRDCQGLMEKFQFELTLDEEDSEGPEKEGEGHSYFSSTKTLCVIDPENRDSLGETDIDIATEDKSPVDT", "experiment": "Inhibition of PDE4B activity: SPA and/or Fluorescence Polarisation (FP) assay", "type": "biochemical", "settings": "one reading (n=1) or average of 2 or more readings, read-out: PDE4B pIC50 (±about 0.5) (converted)", "procedure": "The ability of compounds to inhibit catalytic activity at PDE4B or 4D (human recombinant), PDE3 (from bovine aorta), PDE5 (human recombinant) or PDE6 (from bovine retina) can optionally be determined by Scintillation Proximity Assay (SPA) in a 96-well format.\nThe enzyme concentration is adjusted so that no more than 20% hydrolysis of the substrate defined below occurs in control wells without compound, during the incubation. For the PDE3, PDE4B and PDE4D assays, [5′,8-3H]Adenosine 3′,5′-cyclic phosphate (Amersham Pharmacia Biotech, code TRK.559; or Amersham Biosciences UK Ltd, Pollards Wood, Chalfont St Giles, Buckinghamshire HP8 4SP, UK) is added to give 0.05 uCi per well and about 10 nM final concentration. […] Plates containing assay mixture, suitably approx. 100 ul volume of assay mixture, are mixed on an orbital shaker for 5 minutes and incubated at ambient temperature for 1 hour. Phosphodiesterase SPA beads (Amersham Pharmacia Biotech, code RPNQ 0150) are added (about 1 mg per well) to terminate the assay. Plates are sealed and shaken and allowed to stand at ambient temperature for 35 minutes to 1 hour (suitably 35 minutes) to allow the beads to settle. […] Curves are analysed using ActivityBase and XLfit (ID Business Solutions Limited, 2 Ocean Court, Surrey Research Park, Guildford, Surrey GU2 7QB, United Kingdom). Results are expressed as pIC50 values.\nThe ability of compounds to inhibit catalytic activity at PDE4B (human recombinant) or PDE4D (human recombinant) can optionally be determined by IMAP Fluorescence Polarisation (FP) assay (IMAP Explorer kit, available from Molecular Devices Corporation, Sunnydale, Calif., USA; Molecular Devices code: R8062) in 384-well format.\nThe IMAP FP assay is able to measure PDE activity in an homogenous, non-radioactive assay format. The FP assay uses the ability of immobilised trivalent metal cations, coated onto nanoparticles (tiny beads), to bind the phosphate group of Fl-AMP that is produced on the hydrolysis of fluorescein-labelled (Fl) cyclic adenosine mono-phosphate (Fl-cAMP) to the non-cyclic Fl-AMP form. […] Binding of Fl-AMP product to the beads (coated with the immobilised trivalent cations) slows the rotation of the bound Fl-AMP and leads to an increase in the fluorescence polarisation ratio of parallel to perpendicular light. Inhibition of the PDE reduces/inhibits this signal increase.\nThe enzyme level is set by experimentation so that reaction is linear throughout the incubation. Fluorescein adenosine 3′,5′-cyclic phosphate (from Molecular Devices Corporation, Molecular Devices code: R7091) is added to give about 40 nM final concentration (final assay volume usually ca. 20-40 ul, suitably ca. 20 ul). Plates are mixed on an orbital shaker for 10 seconds and incubated at ambient temperature for 40 minutes. IMAP binding reagent (as described above, from Molecular Devices Corporation, Molecular Devices code: R7207) is added (60 ul of a 1 in 400 dilution in binding buffer of the kit stock solution) to terminate the assay. Plates are allowed to stand at ambient temperature for 1 hour. The Fluorescence Polarisation (FP) ratio of parallel to perpendicular light is measured using an Analyst™ plate reader (from Molecular Devices Corporation). […] Curves are analysed using ActivityBase and XLfit (ID Business Solutions Limited, 2 Ocean Court, Surrey Research Park, Guildford, Surrey GU2 7QB, United Kingdom). Results are expressed as plC50 values.", "units": {"IC50": "nM"}, "values": [
      {"smiles": "CCc1nc2c(cnn2CC)c(NC2CCOCC2)c1CNC(=O)c1nc2ccc(Cl)cc2nc1OC", "note": "[Example 174, 6-chloro-N-{[1,6-diethyl-4-(tetrahydro-2H-pyran-4-ylamino)-1H-pyrazolo[3,4-b]pyridin-5-yl]methyl}-3-(methyloxy)-2-quinoxalinecarboxamide]", "IC50": "0.01 to 0.1"},
      {"smiles": "CCc1nc2c(cnn2CC)c(NC2CCOCC2)c1CNC(=O)c1ccc(N2CCCCC2)cc1", "note": "[Example 175, N-{[1,6-diethyl-4-(tetrahydro-2H-pyran-4-ylamino)-1H-pyrazolo[3,4-b]pyridin-5-yl]methyl}-4-(1-piperidinyl)benzamide]", "IC50": "0.01 to 0.1"},
      {"smiles": "CCc1nc2c(cnn2CC)c(NC2CCOCC2)c1CNC(=O)c1ccc2c(c1)CCC2", "note": "[Example 176, N-{[1,6-diethyl-4-(tetrahydro-2H-pyran-4-ylamino)-1H-pyrazolo[3,4-b]pyridin-5-yl]methyl}-2,3-dihydro-1H-indene-5-carboxamide]", "IC50": "0.01 to 0.1"},
      {"smiles": "CCc1nc2c(cnn2CC)c(NC2CCOCC2)c1CNC(=O)c1ccc2c(c1)CCCC2", "note": "[Example 177, N-{[1,6-diethyl-4-(tetrahydro-2H-pyran-4-ylamino)-1H-pyrazolo[3,4-b]pyridin-5-yl]methyl}-5,6,7,8-tetrahydro-2-naphthalenecarboxamide]", "IC50": "0.126 to 1"},
      {"smiles": "CCc1nc2c(cnn2CC)c(NC2CCOCC2)c1CNC(=O)c1ccc(N2CCCC2=O)cc1", "note": "[Example 178, N-{[1,6-diethyl-4-(tetrahydro-2H-pyran-4-ylamino)-1H-pyrazolo[3,4-b]pyridin-5-yl]methyl}-4-(2-oxo-1-pyrrolidinyl)benzamide]", "IC50": "0.01 to 0.1"},
      {"smiles": "CCc1nc2c(cnn2CC)c(NC2CCOCC2)c1CNC(=O)c1cc(S(=O)(=O)c2ccccc2)ccc1OC", "note": "[Example 179, N-{[1,6-diethyl-4-(tetrahydro-2H-pyran-4-ylamino)-1H-pyrazolo[3,4-b]pyridin-5-yl]methyl}-2-(methyloxy)-5-(phenylsulfonyl)benzamide]", "IC50": "0.01 to 0.1"},
      {"smiles": "CCc1nc2c(cnn2CC)c(NC2CCOCC2)c1CNC(=O)c1ccc(N2CCOCC2)cc1", "note": "[Example 180, N-{[1,6-diethyl-4-(tetrahydro-2H-pyran-4-ylamino)-1H-pyrazolo[3,4-b]pyridin-5-yl]methyl}-4-(4-morpholinyl)benzamide]", "IC50": "0.01 to 0.1"},
      {"smiles": "CCc1nc2c(cnn2CC)c(NC2CCOCC2)c1CNC(=O)c1cc(C(=O)N(C)c2ccccc2)ccc1OC", "note": "[Example 182, N˜3˜-{[1,6-diethyl-4-(tetrahydro-2H-pyran-4-ylamino)-1H-pyrazolo[3,4-b]pyridin-5-yl]methyl}-N˜1˜-methyl-4-(methyloxy)-N-˜1˜-phenyl-1,3-benzenedicarboxamide]", "IC50": "0.01 to 0.1"},
      {"smiles": "CCc1nc2c(cnn2CC)c(NC2CCOCC2)c1CNC(=O)c1cc(S(=O)(=O)NCC2CC2)ccc1OC", "note": "[Example 183, 5-{[(cyclopropylmethyl)amino]sulfonyl}-N-{[1,6-diethyl-4-(tetrahydro-2H-pyran-4-ylamino)-1H-pyrazolo[3,4-b]pyridin-5-yl]methyl}-2-(methyloxy)benzamide]", "IC50": "0.01 to 0.1"},
      {"smiles": "CCc1nc2c(cnn2CC)c(NC2CCOCC2)c1CNC(=O)c1ccc(C2CCCC2)cc1", "note": "[Example 184, 4-cyclopentyl-N-{[1,6-diethyl-4-(tetrahydro-2H-pyran-4-ylamino)-1H-pyrazolo[3,4-b]pyridin-5-yl]methyl}benzamide]", "IC50": "0.01 to 0.1"},
      {"smiles": "CCc1nc2c(cnn2CC)c(NC2CCOCC2)c1CNC(=O)c1cc(S(=O)(=O)N(CC)CC)ccc1OC", "note": "[Example 185, 5-[(diethylamino)sulfonyl]-N-{[1,6-diethyl-4-(tetrahydro-2H-pyran-4-ylamino)-1H-pyrazolo[3,4-b]pyridin-5-yl]methyl}-2-(methyloxy)benzamide]", "IC50": "0.01 to 0.1"},
      {"smiles": "CCc1nc2c(cnn2CC)c(NC2CCOCC2)c1CNC(=O)c1cc(S(=O)(=O)NC2CCC2)ccc1OC", "note": "[Example 186, 5-[(cyclobutylamino)sulfonyl]-N-{[1,6-diethyl-4-(tetrahydro-2H-pyran-4-ylamino)-1H-pyrazolo[3,4-b]pyridin-5-yl]methyl}-2-(methyloxy)benzamide]", "IC50": "0.01 to 0.1"},
      {"smiles": "CCc1nc2c(cnn2CC)c(NC2CCOCC2)c1CNC(=O)c1ccc(N2CCCCCCC2)cc1", "note": "[Example 187, N-{[1,6-diethyl-4-(tetrahydro-2H-pyran-4-ylamino)-1H-pyrazolo[3,4-b]pyridin-5-yl]methyl}-4-(hexahydro-1(2H)-azocinyl)benzamide]", "IC50": "0.126 to 1"},
      {"smiles": "CCc1nc2c(cnn2CC)c(NC2CCOCC2)c1CNC(=O)c1cc(C#N)c(C(C)C)cc1OC", "note": "[Example 188, 5-cyano-N-{[1,6-diethyl-4-(tetrahydro-2H-pyran-4-ylamino)-1H-pyrazolo[3,4-b]pyridin-5-yl]methyl}-4-(1-methylethyl)-2-(methyloxy)benzamide]", "IC50": "0.01 to 0.1"},
      {"smiles": "CCc1nc2c(cnn2CC)c(NC2CCOCC2)c1CNC(=O)c1cccc2c1CCC2", "note": "[Example 189, N-{[1,6-diethyl-4-(tetrahydro-2H-pyran-4-ylamino)-1H-pyrazolo[3,4-b]pyridin-5-yl]methyl}-2,3-dihydro-1H-indene-4-carboxamide]", "IC50": "0.126 to 1"},
      {"smiles": "CCc1nc2c(cnn2CC)c(NC2CCOCC2)c1CNC(=O)c1cccc(N2CCOCC2)c1", "note": "[Example 190, N-{[1,6-diethyl-4-(tetrahydro-2H-pyran-4-ylamino)-1H-pyrazolo[3,4-b]pyridin-5-yl]methyl}-3-(4-morpholinyl)benzamide]", "IC50": "0.01 to 0.1"},
      {"smiles": "CCc1nc2c(cnn2CC)c(NC2CCOCC2)c1CNC(=O)c1ccc2ccccc2c1", "note": "[Example 191, N-{[1,6-diethyl-4-(tetrahydro-2H-pyran-4-ylamino)-1H-pyrazolo[3,4-b]pyridin-5-yl]methyl}-2-naphthalenecarboxamide]", "IC50": "0.126 to 1"},
      {"smiles": "CCc1nc2c(cnn2CC)c(NC2CCOCC2)c1CNC(=O)c1cccc2ccccc12", "note": "[Example 192, N-{[1,6-diethyl-4-(tetrahydro-2H-pyran-4-ylamino)-1H-pyrazolo[3,4-b]pyridin-5-yl]methyl}-1-naphthalenecarboxamide]", "IC50": "0.126 to 1"},
      {"smiles": "CCc1nc2c(cnn2CC)c(NC2CCOCC2)c1CNC(=O)c1ccc(C(C)C)cc1", "note": "[Example 193, N-{[1,6-diethyl-4-(tetrahydro-2H-pyran-4-ylamino)-1H-pyrazolo[3,4-b]pyridin-5-yl]methyl}-4-(1-methylethyl)benzamide]", "IC50": "0.01 to 0.1"},
      {"smiles": "CCc1nc2c(cnn2CC)c(NC2CCOCC2)c1CNC(=O)c1ccc(NC(C)=O)cc1", "note": "[Example 194, 4-(acetylamino)-N-{[1,6-diethyl-4-(tetrahydro-2H-pyran-4-ylamino)-1H-pyrazolo[3,4-b]pyridin-5-yl]methyl}benzamide]", "IC50": "0.01 to 0.1"},
      {"smiles": "CCc1nc2c(cnn2CC)c(NC2CCOCC2)c1CNC(=O)c1ccoc1C", "note": "[Example 195, N-{[1,6-diethyl-4-(tetrahydro-2H-pyran-4-ylamino)-1H-pyrazolo[3,4-b]pyridin-5-yl]methyl}-2-methyl-3-furancarboxamide]", "IC50": "0.126 to 1"},
      {"smiles": "CCc1nc2c(cnn2CC)c(NC2CCOCC2)c1CNC(=O)c1ccccc1", "note": "[Example 196, N-{[1,6-diethyl-4-(tetrahydro-2H-pyran-4-ylamino)-1H-pyrazolo[3,4-b]pyridin-5-y]methyl}benzamide]", "IC50": "0.126 to 1"},
      {"smiles": "CCc1nc2c(cnn2CC)c(NC2CCOCC2)c1CN1Cc2occc2C1=O", "note": "[Example 198, 5-{[1,6-diethyl-4-(tetrahydro-2H-pyran-4-ylamino)-1H-pyrazolo[3,4-b]pyridin-5-yl]methyl}-5,6-dihydro-4H-furo[2,3-c]pyrrol-4-one]", "IC50": "0.126 to 1"},
      {"smiles": "CCc1nc2c(cnn2CC)c(NC2CCOCC2)c1CN1Cc2ccccc2C1=O", "note": "[Example 199, 2-{[1,6-diethyl-4-(tetrahydro-2H-pyran-4-ylamino)-1H-pyrazolo[3,4-b]pyridin-5-yl]methyl}-2,3-dihydro-1H-isoindol-1-one]", "IC50": "0.01 to 0.1"},
      {"smiles": "CCc1nc2c(cnn2CC)c(NC2CCOCC2)c1CNC(=O)NCc1ccccc1", "note": "[Example 200]", "IC50": "0.126 to 1"}
    ]}
  ]
}
